In this assay the test system is PMA-induced release of endogenous IL-6R from human peripheral blood mononuclear cells (PBMCs). As to the kind of experiment: Example 14: ELISA-based IL-6R release assay, PMA-induced, PBMCs from healthy donor. The assay is classed as cell-based. The settings on record: 10 μM final concentration, PMA 25 ng/ml, delta Buffer stimulated vs unstimulated = 100% inhibition; for inhibition at 10 µM: Homo sapiens, PBMC. The protocol:
In the following study, ELISA-based IL-6R release assays were performed to analyze the inhibitory effects of Compounds 1, 2, 3, 4, 5, and 7 on PMA-induced release of endogenous IL-6R from primary human material obtained from healthy donor using peripheral blood mononuclear cells (PBMCs). The ELISA-based IL-6R release assay that was used in this example is described below.
In brief, on day 1, Nunc black MaxiSorp® 96-well plates (Thermo Fisher Scientific, USA) were coated overnight with […] per well of mouse anti-human IL-6R capture antibody (provided as part of the DuoSet ELISA kit) at 2 μg/ml TBS at 4° C.
40,000 PBMCs from healthy donor (SciRhom GmbH, Germany) in 80 μl of normal growth medium were seeded in each well of Greiner CELLSTAR V-bottom 96-well plates (Greiner Bio-One, Germany) and pre-incubated with 20 μl per well of standard growth medium supplemented with Batimastat (BB94, Abcam, UK) at 50 μM as positive control (for a final concentration of 10 μM in the resulting 100 μl sample volume), compounds of the invention at 50 μM (for a final concentration of 10 μM in the resulting 100 μl sample volume) and in case of Buffer stimulated and unstimulated controls with DMSO (Carl Roth, Germany) at 50 μM (for a final concentration of 10 μM in the resulting 100 μl sample volume) at 37° C., 5% CO2 for 30 minutes. Subsequently, cells (except those for unstimulated controls) were stimulated with 20 μl per well of PMA (Sigma-Aldrich, USA) at 150 ng/ml in growth medium for a final concentration of 25 ng/ml at 37° C., 5% CO2 for 22 hours.
On day 2, the capture antibody solution was removed and MaxiSorp® plates were blocked with 300 μl per well of TBS, 1% BSA at room temperature for 2-3 hours. Meanwhile, the 96-well plates were centrifuged to pellet cells. In parallel, blocking buffer was removed from the MaxiSorp® plates and plates were washed 4 times with 350 μl TBS-T (Carl Roth, Germany) per well on a 96-head plate washer (Tecan Group, Switzerland). To avoid drying-up, 30 μl TBS were added to each well of the MaxiSorp® plates immediately, followed by the transfer of 70 μl cell-free supernatant per sample. Additionally, 100 μl recombinant human IL-6R protein (provided as part of the DuoSet ELISA kit) diluted in TBS at defined concentrations were added to the plate as standard references. Plates were incubated at room temperature for 2 hours. After 4 times washing with 350 μl TBS-T (Carl Roth, Germany) per well on a 96-head plate washer (Tecan Group, Switzerland) and careful removal of all buffer traces after the fourth cycle, 100 μl biotinylated goat anti-human IL-6R detection antibody (provided as part of the DuoSet ELISA kit) at 100 ng/ml TBS were added per well and, protected from direct light, plates were incubated at room temperature for 2 hours. After 4 times washing with 350 μl TBS-T (Carl Roth, Germany) per well on a 96-head plate washer (Tecan Group, Switzerland) and careful removal of all buffer traces after the fourth cycle, 100 μl streptavidin-AP (R&D Systems, USA) diluted 1:10,000 in TBS were added to each well and, again protected from direct light, plates were incubated at room temperature for 30 minutes. Following another round of 4 times washing with 350 μl TBS-T (Carl Roth, Germany) per well on a 96-head plate washer (Tecan Group, Switzerland) and careful removal of all buffer traces after the fourth cycle, 100 μl AttoPhos substrate solution (Promega, USA) per well was added for incubation in the dark at room temperature for 1 hour. Using an infinite M1000 (Tecan Group, Switzerland) microplate reader, the fluorescence of each well was collected at an excitation wavelength of 435 nm and an emission wavelength of 555 nm.
The delta between Buffer stimulated and Buffer unstimulated was defined 100% inhibition.
(An ELISA detects its analyte on a solid surface through an enzyme-linked reagent.)

Here are results for 7 molecules from patent US20260242359A1, “IRHOM2 INHIBITORS AND USES THEREOF” (NEW YORK SOCIETY FOR THE RELIEF OF THE RUPTURED AND …, priority 2023, published 2026).

What is called inhibition is the change of the read-out against control, counted positive when it falls.

Turning to `CNC(=O)[C@H](Cc1ccccc1)NC(=O)[C@H](CC(C)C)[C@H](CSc1cccs1)C(=O)NO` [Batimastat, reference compound], under “22 hours”, the “inhibition of PMA-induced release of IL-6R from PBMCs from healthy donor” value amounted to 98.5%. The inhibition at 10 µM (22 h) was found to be 100%.

With `CCC(=O)NCCc1c(/C=C2/C(=O)NC(=O)N(c3ccc(C)cc3C)C2=O)[nH]c2ccccc12` [Compound 1], the inhibition at 10 µM (22 hours) is 112%.

As to `CCOC(=O)c1ccc(Nc2nc3nonc3n3nnnc23)cc1` [Compound 2], the inhibition at 10 µM (22 h) came out at 111%.

On to `O=C(c1c(Cl)cccc1Cl)N1CCC(Cc2ccc(F)cc2)CC1` [Compound 3], for which the inhibition at 10 µM (22 h) amounted to 0%.

As to `Cc1c(C(=O)NCc2cccs2)sc(=O)n1Cc1ccccc1` [Compound 4], the inhibition at 10 µM (22 h) was determined as 6.2%.

For the molecule `Cc1c(C(=O)NCc2cccs2)sc(=O)n1Cc1ccccc1F` [Compound 5], the inhibition at 10 µM (22 h) is 6.5%.

With `Cc1c(C(=O)NCc2ccco2)sc(=O)n1Cc1ccccc1F` [Compound 7], the inhibition at 10 µM (22 h) worked out at 59.1%.
